From ChEMBL document CHEMBL5131476, “Development of dihydropyrrolopyridinone-based PKN2/PRK2 chemical tools to enable drug discovery” (Bioorg Med Chem Lett, 2022)

What was measured:
[1] = target: T1, Serine/threonine-protein kinase N1 (Homo sapiens, UniProt Q16512); experiment: Inhibition of PKN1 (unknown origin) by TR-FRET-based tracer displacement assay dependent Cheng-Prusoff equation analysis
[2] = target: T1, Serine/threonine-protein kinase N1; experiment: Inhibition of PKN1 (unknown origin) by TR-FRET-based tracer displacement assay
[3] = Toxicity in human HeLa cells assessed as cell viability at 50 uM incubated for 24 hrs by MTT assay; type: cell-based; details: read-out: Activity
[4] = target: T2, Serine/threonine-protein kinase N2 (Homo sapiens, UniProt Q16513); experiment: Inhibition of PKN2 (unknown origin) by TR-FRET-based tracer displacement assay dependent Cheng-Prusoff equation analysis
[5] = target: T2, Serine/threonine-protein kinase N2; experiment: Inhibition of PKN2 (unknown origin) by TR-FRET-based tracer displacement assay
[6] = target: T2, Serine/threonine-protein kinase N2; experiment: Inhibition of NanoLuc-PKN2 (ser646-cys984)(unknown origin) expressed in HEK293 cells by cell-based NanoBRET target engagement assay
[7] = target: T2, Serine/threonine-protein kinase N2; experiment: Inhibition of NanoLuc-PKN2 (ser646-cys984)(unknown origin) expressed in HEK293 cells in […] by cell-based NanoBRET target engagement assay

T2 sequence (Q16513 whole entry): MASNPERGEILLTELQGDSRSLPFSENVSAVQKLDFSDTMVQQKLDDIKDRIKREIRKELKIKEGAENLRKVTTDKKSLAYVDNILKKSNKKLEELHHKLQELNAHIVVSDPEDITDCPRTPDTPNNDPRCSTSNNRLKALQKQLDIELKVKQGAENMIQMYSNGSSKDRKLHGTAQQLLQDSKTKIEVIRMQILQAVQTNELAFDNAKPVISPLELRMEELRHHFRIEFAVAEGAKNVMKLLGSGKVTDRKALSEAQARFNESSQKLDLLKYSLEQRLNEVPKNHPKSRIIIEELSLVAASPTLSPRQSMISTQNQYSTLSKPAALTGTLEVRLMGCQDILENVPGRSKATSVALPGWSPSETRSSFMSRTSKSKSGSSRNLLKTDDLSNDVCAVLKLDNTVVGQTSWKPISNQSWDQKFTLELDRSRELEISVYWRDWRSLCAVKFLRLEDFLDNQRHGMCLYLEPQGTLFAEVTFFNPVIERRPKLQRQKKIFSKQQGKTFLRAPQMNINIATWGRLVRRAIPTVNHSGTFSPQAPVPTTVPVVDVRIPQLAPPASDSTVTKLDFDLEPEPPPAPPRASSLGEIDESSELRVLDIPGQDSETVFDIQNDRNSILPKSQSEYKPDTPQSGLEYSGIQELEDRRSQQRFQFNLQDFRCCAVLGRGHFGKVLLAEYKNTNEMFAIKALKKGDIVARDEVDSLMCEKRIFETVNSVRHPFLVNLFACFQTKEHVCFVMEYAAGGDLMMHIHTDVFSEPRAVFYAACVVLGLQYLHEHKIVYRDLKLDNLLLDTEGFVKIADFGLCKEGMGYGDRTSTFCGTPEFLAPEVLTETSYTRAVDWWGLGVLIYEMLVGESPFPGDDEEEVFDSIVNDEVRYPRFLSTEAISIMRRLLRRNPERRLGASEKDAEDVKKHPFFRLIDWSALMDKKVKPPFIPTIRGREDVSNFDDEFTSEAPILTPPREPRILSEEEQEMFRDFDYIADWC
T1 sequence (Q16512 whole entry): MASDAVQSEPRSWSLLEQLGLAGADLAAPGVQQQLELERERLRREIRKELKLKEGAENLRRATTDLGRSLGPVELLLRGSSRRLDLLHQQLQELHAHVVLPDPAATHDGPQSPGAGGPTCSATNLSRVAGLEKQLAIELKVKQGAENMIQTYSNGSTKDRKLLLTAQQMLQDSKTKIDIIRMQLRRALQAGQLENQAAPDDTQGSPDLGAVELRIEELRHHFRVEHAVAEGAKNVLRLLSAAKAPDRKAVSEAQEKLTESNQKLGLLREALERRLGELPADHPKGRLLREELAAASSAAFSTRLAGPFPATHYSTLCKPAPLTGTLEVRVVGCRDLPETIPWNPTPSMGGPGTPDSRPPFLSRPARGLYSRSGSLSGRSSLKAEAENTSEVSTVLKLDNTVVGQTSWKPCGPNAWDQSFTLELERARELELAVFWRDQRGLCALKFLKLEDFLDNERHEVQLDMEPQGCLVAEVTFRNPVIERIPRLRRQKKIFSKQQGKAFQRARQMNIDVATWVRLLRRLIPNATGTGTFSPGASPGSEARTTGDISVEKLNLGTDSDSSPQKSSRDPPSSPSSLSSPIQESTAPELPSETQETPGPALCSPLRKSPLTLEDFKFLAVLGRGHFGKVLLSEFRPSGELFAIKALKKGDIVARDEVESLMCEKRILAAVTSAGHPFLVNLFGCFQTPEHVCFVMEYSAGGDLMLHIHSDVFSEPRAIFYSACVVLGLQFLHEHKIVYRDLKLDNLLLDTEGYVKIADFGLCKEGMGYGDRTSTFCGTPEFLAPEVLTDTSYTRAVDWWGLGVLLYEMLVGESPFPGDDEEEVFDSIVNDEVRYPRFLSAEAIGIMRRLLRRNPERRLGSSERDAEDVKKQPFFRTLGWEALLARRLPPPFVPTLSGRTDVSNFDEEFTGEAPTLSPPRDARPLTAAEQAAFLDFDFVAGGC

Ki [1] [nM]	IC50 [2] [nM]	Ki [4] [nM]	IC50 [5] [nM]	IC50 [6] [nM]	IC50 [7] [nM]	SMILES	viability at 24 h, 50 µM [3] [%]
150	300	–	–	–	–	O=C1NCCc2[nH]c(-c3ccncc3)cc21	≥ 70
108	210	8	16	2100	1100	CCn1c(-c2ccncc2)cc2c1CCNC2=O	≥ 70
220	440	15	30	11000	–	O=C1NCCc2c1cc(-c1ccncc1)n2CCO	–
2200	4500	130	260	–	–	Cn1c(-c2ccncc2)cc2c1CCNC2=O	–
–	> 5000	1600	3200	–	–	O=C1NCCc2[nH]c(-c3cccnc3)cc21	–
1500	3000	320	640	–	–	O=C1NCCc2c1cc(-c1ccncc1)n2Cc1ccccc1	–
260	520	25	50	–	–	O=C1NC(c2ccccc2)Cc2[nH]c(-c3ccncc3)cc21 (stereo not drawn)	–
–	> 5000	1300	2600	–	–	CCCN1CCc2c(cc(-c3ccncc3)n2CC)C1=O	–
–	> 5000	170	350	–	–	CCn1c(-c2ccncc2)cc2c1CCN(C)C2=O	–
60	120	7	15	2800	–	CCCn1c(-c2ccncc2)cc2c1CCNC2=O	≥ 70
–	> 5000	1100	2200	–	–	c1cc(-c2cc3c([nH]2)CCNC3)ccn1	–
920	1840	70	140	–	–	CC(C)n1c(-c2ccncc2)cc2c1CCNC2=O	–
650	1300	30	60	–	–	O=C1CCCc2[nH]c(-c3ccncc3)cc21	–
